What was measured:
Human PKMYT1 = biological target: T1, Human PKMYT1 (Homo sapiens, UniProt Q99640); assay: PKMYT1 biochemical ADP-Glo enzymatic assay; details: ADP-Glo
T1 construct: Human PKMYT1 75-362 was cloned as a TEV cleavable 6xHis fusion; 6xHis (TEV cleavable) (cleaved yes); made in house; host or cells: bacterial cells
T1 sequence (Q99640 75-362): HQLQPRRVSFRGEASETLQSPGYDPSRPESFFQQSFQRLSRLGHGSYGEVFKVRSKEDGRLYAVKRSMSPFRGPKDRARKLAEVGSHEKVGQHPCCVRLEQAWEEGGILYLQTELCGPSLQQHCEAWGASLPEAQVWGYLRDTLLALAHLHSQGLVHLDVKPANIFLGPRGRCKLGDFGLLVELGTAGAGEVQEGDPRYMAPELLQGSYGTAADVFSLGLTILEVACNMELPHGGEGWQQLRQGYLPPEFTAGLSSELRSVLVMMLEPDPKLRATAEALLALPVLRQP
In short: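 Measures inhibition of PKMYT1 autonomous ATP hydrolysis: bacterially expressed human enzyme (75-362, tag cleaved) at 15 nM with 500 µM ATP for 60 min at 26 °C, then ADP-Glo Max detection. IC50s accepted only when replicates agreed within 3-fold and curve r2 exceeded 0.9.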

WEE1 = biological target: T2, WEE1 (Homo sapiens, UniProt P30291); assay: Selectivity versus WEE1 assay (ADP-Glo enzymatic assay); type: biochemical; details: for IC50: ADP-Glo; for PKMYT1 vs. WEE1 selectivity: fold difference in selectivity for PKMYT1 over WEE1
T2 construct: purchased Thermo Fisher PR7373A
In short: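 Same format as the PKMYT1 assay: WEE1 at 15 nM final with 30 µM ATP, 60 min at 26° C, ADP-Glo luminescence detection, IC50 by dose-response fitting.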

OVCAR 3 cells = assay: Cancer cell line proliferation assay, ATP-based cell viability (Cell Titre Glow), OVCAR 3 (CCNE1-amplified); details: KYSE30 (normal CCNE1) GI50 vs. OVCAR 3 (CCNE1-amplified) GI50
In short: (§1)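 GI50 values, the concentrations halving cell growth, were derived from ATP-based luminescence (Cell Titre Glo) after PKMYT1 inhibitor exposure. Cells tested were OVCAR 3, an ovarian line with amplified CCNE1, and KYSE-30, which has normal CCNE1.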

KYSE-30 cells = assay: Cancer cell line proliferation assay, ATP-based cell viability (Cell Titre Glow), KYSE-30 (normal CCNE1); details: Homo sapiens, KYSE-30 cells (normal CCNE1), concentration that achieves 50% cell growth proliferation inhibition, read-out: KYSE30 Gl50
In short: as §1

[1] = biological target: T3, Cellular PKMYT1 Biomarker CDK1 pT14 (Homo sapiens, UniProt Q99640); assay: Inhibition of cellular PKMYT1 biomarker CDK1 pT14 in OVCAR 3 cells (immunoblot); type: cell-based; details: 20 hours incubation
T3 construct: read-out CDK1 phospho-T14 immunoblot
T3 sequence (Q99640 1-499): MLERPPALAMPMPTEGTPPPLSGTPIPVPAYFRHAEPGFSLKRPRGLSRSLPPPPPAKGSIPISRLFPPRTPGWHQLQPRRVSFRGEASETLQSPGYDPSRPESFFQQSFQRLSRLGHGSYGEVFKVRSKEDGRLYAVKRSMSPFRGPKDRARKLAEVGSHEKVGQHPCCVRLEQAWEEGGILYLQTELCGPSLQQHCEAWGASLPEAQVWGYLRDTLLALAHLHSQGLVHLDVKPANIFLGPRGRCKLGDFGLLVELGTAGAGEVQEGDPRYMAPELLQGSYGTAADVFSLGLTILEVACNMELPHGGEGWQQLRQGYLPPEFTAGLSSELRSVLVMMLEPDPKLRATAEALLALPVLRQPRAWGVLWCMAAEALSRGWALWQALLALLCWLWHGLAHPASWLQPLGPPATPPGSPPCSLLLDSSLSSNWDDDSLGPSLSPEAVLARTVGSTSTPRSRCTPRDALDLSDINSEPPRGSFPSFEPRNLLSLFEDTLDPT
In short: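 Confluent OVCAR 3 cells treated with a compound concentration range for 20 h at 37 °C. Lysates analysed by automated capillary immunoblot for CDK1 phospho-T14, with vinculin, fluorescence detection; IC50 by regression.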

[2] = PKMYT1 kinase domain 15 nM, banded values
[3] = 15 nM PKMYT1 kinase domain, 500 µM ATP, 60 minutes at 26° C., banded
[4] = 15 nM WEE1, 60 minutes at 26° C., banded
[5] = banded, ">N" = at least in this band but could be higher

T2 sequence (P30291 whole entry): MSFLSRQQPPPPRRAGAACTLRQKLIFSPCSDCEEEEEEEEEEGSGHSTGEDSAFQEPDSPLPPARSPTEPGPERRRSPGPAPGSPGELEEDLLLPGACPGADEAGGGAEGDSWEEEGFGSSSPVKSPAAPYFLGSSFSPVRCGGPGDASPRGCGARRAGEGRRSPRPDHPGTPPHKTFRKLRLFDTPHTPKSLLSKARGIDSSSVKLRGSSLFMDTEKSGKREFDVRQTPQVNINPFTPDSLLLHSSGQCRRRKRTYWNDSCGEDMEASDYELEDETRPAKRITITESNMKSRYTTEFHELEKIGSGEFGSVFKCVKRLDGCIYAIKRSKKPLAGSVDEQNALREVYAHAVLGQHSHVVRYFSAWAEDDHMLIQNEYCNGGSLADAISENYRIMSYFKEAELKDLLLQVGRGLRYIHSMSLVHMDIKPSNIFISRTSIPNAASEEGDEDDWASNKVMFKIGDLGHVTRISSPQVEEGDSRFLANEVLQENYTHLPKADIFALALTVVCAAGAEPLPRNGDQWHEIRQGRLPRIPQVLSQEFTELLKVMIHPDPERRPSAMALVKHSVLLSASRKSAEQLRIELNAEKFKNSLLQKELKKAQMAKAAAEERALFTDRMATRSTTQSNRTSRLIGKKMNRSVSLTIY

| SMILES | IC50 (Human PKMYT1; [2]) | IC50 (WEE1; WEE1 15 nM, banded values) | PKMYT1 vs. WEE1 selectivity (WEE1; banded) | Selectivity ratio KYSE30 Gl50 vs. OVCAR3 Gl50 (OVCAR 3 cells) | GI50 (KYSE-30 cells) | IC50 [1] | IC50 (Human PKMYT1; [3]) | IC50 (WEE1; [4]) | PKMYT1 vs. WEE1 selectivity (WEE1; [5]) |
| --- | --- | --- | --- | --- | --- | --- | --- | --- | --- |
| CCn1nc(Nc2ncc(C(=O)Nc3c(C)ccc(O)c3C)s2)c2cc(F)ccc21 [BAA-459, 2-((1-ethyl-5-fluoro-1H-indazol-3-yl)amino)-N-(3-hydroxy-2,6-dimethylphenyl)thiazole-5-carboxamide] | 0.05 to 1 µM | > 11 µM | X (100-<1000 fold) | Y (>20 fold) | > 5 µM | < 0.1 µM | – | – | – |
| Cc1cn(CC(=O)N2CCC2C)nc1Nc1ncc(C(=O)Nc2c(C)ccc(O)c2C)s1 (stereo not drawn) [BAA-598, N-(3-hydroxy-2,6-dimethylphenyl)-2-((4-methyl-1-(2-(2-methylazetidin-1-yl)-2-oxoethyl)-1H-pyrazol-3-yl)amino)thiazole-5-carboxamide] | < 0.05 µM | 1 to 11 µM | X (100-<1000 fold) | Y (>20 fold) | 0.5 to 5 µM | < 0.1 µM | – | – | – |
| CCN(C(=O)C(CO)n1cc(C)c(Nc2ncc(C(=O)Nc3c(C)ccc(O)c3C)s2)n1)C1CC1 (stereo not drawn) [BAA-592, 2-((1-(1-(cyclopropyl(ethyl)amino)-3-hydroxy-1-oxopropan-2-yl)-4-methyl-1H-pyrazol-3-yl)amino)-N-(3-hydroxy-2,6-dimethylphenyl)thiazole-5-carboxamide] | < 0.05 µM | 1 to 11 µM | X (100-<1000 fold) | Y (>20 fold) | > 5 µM | < 0.1 µM | – | – | – |
| Cc1ccc(N[S+]([O-])C(C)(C)C)nc1Nc1ncc(C(=O)Nc2c(C)ccc(O)c2C)s1 (stereo not drawn) [BAA-340, 2-((6-((tert-Butylsulfinyl)amino)-3-methylpyridin-2-yl)amino)-N-(3-hydroxy-2,6-dimethylphenyl)thiazole-5-carboxamide] | – | – | – | Y (>20 fold) | 0.5 to 5 µM | 0.1 to 1 µM | < 0.05 µM | 0.05 to 1 µM | V (3-<10 fold) |
| CCN(CCOC)C(=O)Cn1cc(C)c(Nc2ncc(C(=O)Nc3c(C)ccc(O)c3C)s2)n1 [BAA-550, 2-((1-(2-(ethyl(2-methoxyethyl)amino)-2-oxoethyl)-4-methyl-1H-pyrazol-3-yl)amino)-N-(3-hydroxy-2,6-dimethylphenyl)thiazole-5-carboxamide] | < 0.05 µM | 1 to 11 µM | X (100-<1000 fold) | Y (>20 fold) | > 5 µM | < 0.1 µM | – | – | – |
| Cc1cn(CC(=O)N(C)C2CCC2)nc1Nc1ncc(C(=O)Nc2c(C)ccc(O)c2C)s1 [BAA-595, 2-((1-(2-(cyclobutyl(methyl)amino)-2-oxoethyl)-4-methyl-1H-pyrazol-3-yl)amino)-N-(3-hydroxy-2,6-dimethylphenyl)thiazole-5-carboxamide] | < 0.05 µM | 1 to 11 µM | X (100-<1000 fold) | Y (>20 fold) | > 5 µM | < 0.1 µM | – | – | – |
| Cc1nc(Nc2ncc(C(=O)Nc3c(C)ccc(O)c3C)s2)cc(N2CCOCC2)n1 [BAA-572, N-(3-hydroxy-2,6-dimethylphenyl)-2-((2-methyl-6-morpholinopyrimidin-4-yl)amino)thiazole-5-carboxamide] | < 0.05 µM | 0.05 to 1 µM | W (10-<100 fold) | Y (>20 fold) | 0.5 to 5 µM | < 0.1 µM | – | – | – |
| Cc1nc(Nc2ncc(C(=O)Nc3c(C)ccc(O)c3C)s2)cc(N2CCN(CCO)CC2)n1 [BAA-220, N-(3-hydroxy-2,6-dimethyl-phenyl)-2-[[6-[4-(2-hydroxyethyl)piperazin-1-yl]-2-methyl-pyrimidin-4-yl]amino]thiazole-5-carboxamide] | – | – | – | Y (>20 fold) | > 5 µM | 0.1 to 1 µM | < 0.05 µM | 0.05 to 1 µM | W (10-<100 fold) |
| CCN(CC)C(=O)Cn1cc(Cl)c(Nc2ncc(C(=O)Nc3c(C)ccc(O)c3C)s2)n1 [BAA-560, 2-((4-chloro-1-(2-(diethylamino)-2-oxoethyl)-1H-pyrazol-3-yl)amino)-N-(3-hydroxy-2,6-dimethylphenyl)thiazole-5-carboxamide] | < 0.05 µM | 1 to 11 µM | X (100-<1000 fold) | Y (>20 fold) | 0.5 to 5 µM | < 0.1 µM | – | – | – |
| Cc1ccc(O)c(C)c1NC(=O)c1cnc(Nc2nn(CC(F)F)cc2Cl)s1 [BAA-569, 2-((4-chloro-1-(2,2-difluoroethyl)-1H-pyrazol-3-yl)amino)-N-(3-hydroxy-2,6-dimethylphenyl)thiazole-5-carboxamide] | < 0.05 µM | 1 to 11 µM | X (100-<1000 fold) | Y (>20 fold) | 0.5 to 5 µM | < 0.1 µM | – | – | – |
| Cc1cn(CC(=O)N(C)C2CC2)nc1Nc1ncc(C(=O)Nc2c(C)ccc(O)c2C)s1 [BAA-554, 2-((1-(2-(cyclopropyl(methyl)amino)-2-oxoethyl)-4-methyl-1H-pyrazol-3-yl)amino)-N-(3-hydroxy-2,6-dimethylphenyl)thiazole-5-carboxamide] | < 0.05 µM | 1 to 11 µM | X (100-<1000 fold) | Y (>20 fold) | > 5 µM | < 0.1 µM | – | – | – |
| Cc1ccc(O)c(C)c1NC(=O)c1cnc(Nc2cccc(N3CCN(C)CC3)n2)s1 [BAA-423, N-(3-hydroxy-2,6-dimethylphenyl)-2-((6-(4-methylpiperazin-1-yl)pyridin-2-yl)amino)thiazole-5-carboxamide] | < 0.05 µM | 1 to 11 µM | W (10-<100 fold) | Y (>20 fold) | 0.5 to 5 µM | < 0.1 µM | – | – | – |
| Cc1ccc(O)c(C)c1NC(=O)c1cnc(Nc2ccc(N3CCC(F)(F)CC3)cn2)s1 [BAA-308, 2-((5-(4,4-difluoropiperidin-1-yl)pyridin-2-yl)amino)-N-(3-hydroxy-2,6-dimethylphenyl)thiazole-5-carboxamide] | – | – | – | X (3-20 fold) | 0.5 to 5 µM | < 0.1 µM | 0.05 to 1 µM | > 11 µM | X (100-<1000 fold) |
| COc1ccc(F)c(Nc2ncc(C(=O)Nc3c(C)ccc(O)c3C)s2)n1 [BAA-425, 2-((3-fluoro-6-methoxypyridin-2-yl)amino)-N-(3-hydroxy-2,6-dimethylphenyl)thiazole-5-carboxamide] | < 0.05 µM | > 11 µM | Y (1000-5000 fold) | Y (>20 fold) | 0.5 to 5 µM | < 0.1 µM | – | – | – |
| Cc1cccc(Nc2ncc(C(=O)Nc3c(C)ccc(O)c3C)s2)n1 [BAA-407, N-(3-hydroxy-2,6-dimethylphenyl)-2-((6-methylpyridin-2-yl)amino)thiazole-5-carboxamide] | < 0.05 µM | 1 to 11 µM | X (100-<1000 fold) | Y (>20 fold) | > 5 µM | < 0.1 µM | – | – | – |

Source: US20260297042A1, “BIARYLAMIDE DERIVATIVES AND THEIR USE AS PKMYT1 INHIBITORS” (CANCER RESEARCH TECHNOLOGY LIMITED, priority 2023, published 2026)
